Data reported in ChEMBL document CHEMBL5543086, “Discovery of novel NSAID hybrids as cPLA2/COX-2 dual inhibitors alleviating rheumatoid arthritis via inhibiting p38 MAPK pathway” (Eur J Med Chem, 2024).
The source made the active and inactive calls.

Tests used:
[1] = Toxicity in Lewis rat model of Freund's complete adjuvant induced arthritis assessed as effect on growth by measuring reduction in body weight at 20 mg/kg, po administered every 24 to 48 hrs for 28 days post immunization starting from day 8 post immunization; assay type: organism-based; conditions: in vivo, 504 h, time 21 day
[2] = tested on: Rattus norvegicus; assay: (§1) Antiarthritic activity in Freund's complete adjuvant induced Lewis rat model of arthritis assessed as reduction in IL-17 protein expression at 20 mg/kg, po administered every 24 to 48 hrs for 28 days post immunization starting from day 8 post immunization by Western blot analysis; assay type: functional, organism-based; conditions: time 21.0 day
[3] = tested on: RAW264.7; assay: Antiinflammatory activity in LPS-induced mouse RAW264.7 cells assessed as inhibition of NO production pretreated for 1 hr followed by LPS stimulation and measured after 24 hrs by griess reagent based assay; assay type: functional, cell-based
[4] = tested on: RAW264.7; assay: Cytotoxicity against LPS-induced mouse RAW264.7 cells assessed as reduction in cell viability at 30 uM pretreated for 1 hr followed by LPS addition and measured after 24 hrs by MTT assay; assay type: toxicity, cell-based; conditions: raw264.7, 25 h
[5] = Hepatotoxicity in male Wistar rat assessed as effect on glutamic pyruvic transaminase level at 20 mg/kg, po administered for 3 days; assay type: toxicity, organism-based; conditions: in vivo, 72 h, time 3 day
[6] = tested on: Rattus norvegicus; assay: Antiarthritic activity in Freund's complete adjuvant induced Lewis rat model of arthritis assessed as reduction in PGE2 level in serum at 20 mg/kg, po administered every 24 to 48 hrs for 28 days post immunization starting from day 8 post immunization by ELISA; assay type: functional, organism-based; conditions: time 21.0 day
[7] = tested on: Rattus norvegicus; assay: as §1, with “joint tissue damage by measuring reduction in inflammatory cell infiltration” for “IL-17 protein expression”, “24” for “24 to 48”, “H and E staining based” for “Western blot”; assay type: functional, organism-based; conditions: time 21.0 day
[8] = tested on: RAW264.7; assay: Antiinflammatory activity against LPS-induced mouse RAW264.7 cells assessed as inhibition of phosphorylated p38 MAPK protein expression pretreated for 1 hr followed by LPS stimulation and measured after 24 hrs by Western blot analysis; assay type: functional, cell-based; conditions: dose 2.5-10 µM, time 25.0 hrs
[9] = tested on: Rattus norvegicus; assay: Analgesic activity in Freund's complete adjuvant induced Lewis rat model of arthritis assessed as increase in mechanical paw withdrawal threshold at 20 mg/kg, po administered every 24 to 48 hrs for 28 days post immunization starting from day 8 post immunization; assay type: functional, organism-based; conditions: time 21.0 day
[10] = Toxicity in male Wistar rat assessed as gastrointestinal damage by measuring level-3 ulcers with >3 mm area at 100 mg/kg administered by gavage and measured after 6 hrs; assay type: organism-based; conditions: in vivo, po
[11] = Toxicity in male Wistar rat assessed as gastrointestinal damage by measuring ulcer index at 100 mg/kg administered by gavage and measured after 6 hrs; assay type: organism-based; conditions: in vivo, po
[12] = Toxicity in male Wistar rat assessed as gastrointestinal damage by measuring number of ulcers at 100 mg/kg administered by gavage and measured after 6 hrs (reference value: 0); assay type: organism-based; conditions: in vivo, po
[13] = tested on: Rattus norvegicus; assay: Antiarthritic activity in Freund's complete adjuvant induced Lewis rat model of arthritis assessed as modulation of immune system responses by measuring reduction in spleen weight at 20 mg/kg, po administered every 24 to 48 hrs for 28 days post immunization starting from day 8 post immunization; assay type: functional, organism-based; conditions: time 21.0 day
[14] = species: Mus musculus; assay: Antiinflammatory activity in mouse model of cotton pellet implantation-induced granuloma; assay type: functional, organism-based
[15] = tested on: Rattus norvegicus; assay: Antiarthritic activity in Freund's complete adjuvant induced Lewis rat model of arthritis assessed as reduction in TNFalpha level in serum at 20 mg/kg, po administered every 24 to 48 hrs for 28 days post immunization starting from day 8 post immunization by ELISA; assay type: functional, organism-based; conditions: time 21.0 day
[16] = tested on: Rattus norvegicus; assay: Antiarthritic activity in Freund's complete adjuvant induced Lewis rat model of arthritis assessed as reduction in IL-6 level in serum at 20 mg/kg, po administered every 24 to 48 hrs for 28 days post immunization starting from day 8 post immunization by ELISA; assay type: functional, organism-based; conditions: time 21.0 day
[17] = tested on: Rattus norvegicus; assay: Immunomodulatory activity in Freund's complete adjuvant induced Lewis rat model of arthritis assessed as increase in anti-IL-10 antibody expression in knee joint slices at 20 mg/kg, po administered every 24 to 48 hrs for 28 days post immunization starting from day 8 post immunization by immunohistochemistry analysis; assay type: functional, organism-based; conditions: time 21.0 day
[18] = Toxicity in male Wistar rat assessed as gastrointestinal damage by measuring level-1 ulcers with <1 mm area at 50 mg/kg administered by gavage and measured after 6 hrs; assay type: organism-based; conditions: in vivo, po
[19] = tested on: Rattus norvegicus; assay: Immunomodulatory activity in Freund's complete adjuvant induced Lewis rat model of arthritis assessed as increase in CD4positive CD25positive Treg cells in peripheral blood at 20 mg/kg, po administered every 24 hrs for 28 days post immunization starting from day 8 post immunization by flow cytometry analysis; assay type: functional, organism-based; conditions: time 21.0 day
[20] = Toxicity in male Wistar rat assessed as gastrointestinal damage by measuring level-2 ulcers with 1 to 3 mm area at 100 mg/kg administered by gavage and measured after 6 hrs; assay type: organism-based; conditions: in vivo, po
[21] = molecular target: T1, Prostaglandin G/H synthase 2 (Mus musculus) (UniProt Q05769); assay: Binding affinity to COX-2 in LPS-induced mouse RAW264.7 cells assessed as thermal stability at 30 uM pretreated with LPS for 24 hrs followed by compound addition and measured after 2 hrs by CETSA; assay type: cell-based
T1 sequence (whole entry): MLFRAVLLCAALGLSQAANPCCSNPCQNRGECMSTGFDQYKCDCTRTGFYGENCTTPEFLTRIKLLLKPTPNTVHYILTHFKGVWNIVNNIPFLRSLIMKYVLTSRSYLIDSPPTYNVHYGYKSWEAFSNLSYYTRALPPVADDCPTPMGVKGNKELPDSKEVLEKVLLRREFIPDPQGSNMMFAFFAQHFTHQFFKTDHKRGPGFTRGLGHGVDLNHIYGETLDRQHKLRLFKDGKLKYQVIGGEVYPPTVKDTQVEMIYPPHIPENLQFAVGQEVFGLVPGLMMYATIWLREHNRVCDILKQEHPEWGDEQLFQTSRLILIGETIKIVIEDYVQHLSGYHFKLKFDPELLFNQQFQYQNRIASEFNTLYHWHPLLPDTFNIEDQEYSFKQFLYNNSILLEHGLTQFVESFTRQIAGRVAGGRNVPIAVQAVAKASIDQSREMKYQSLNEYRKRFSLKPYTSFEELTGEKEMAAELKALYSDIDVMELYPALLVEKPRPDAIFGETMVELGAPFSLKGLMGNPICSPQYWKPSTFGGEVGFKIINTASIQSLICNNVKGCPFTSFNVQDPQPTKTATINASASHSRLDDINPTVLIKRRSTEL

[22] = tested on: Rattus norvegicus; assay: Antiarthritic activity in Freund's complete adjuvant induced Lewis rat model of arthritis assessed as reduction in RORgammat protein expression at 20 mg/kg, po administered every 24 to 48 hrs for 28 days post immunization starting from day 8 post immunization by Western blot analysis; assay type: functional, organism-based; conditions: time 21.0 day
[23] = tested on: Rattus norvegicus; assay: Immunomodulatory activity in Freund's complete adjuvant induced Lewis rat model of arthritis assessed as increase in CD4positive CD25positive Treg cells in spleen at 20 mg/kg, po administered every 24 hrs for 28 days post immunization starting from day 8 post immunization by flow cytometry analysis; assay type: functional, organism-based; conditions: time 21.0 day
[24] = tested on: RAW264.7; assay: Antiinflammatory activity against LPS-induced mouse RAW264.7 cells assessed as inhibition of iNOS protein expression pretreated for 1 hr followed by LPS stimulation and measured after 24 hrs by Western blot analysis; assay type: functional, cell-based; conditions: dose 2.5-10 µM, time 25.0 hrs

CCCCC/C=C\C/C=C\C/C=C\C/C=C\CC/C=C(/OC(=O)C(C)c1ccc(C(=O)c2ccccc2)cc1)C(F)(F)F (centres undefined)
Activity [1]: Non-Toxic
Activity [2]: Active
IC50 [3]: 3.85 µM
Activity [4]: Non-Toxic
Activity [5]: Non-Toxic
Activity [6]: Active
Activity [7]: Active
Activity [8]: Dose-Dependent Effect
Activity [9]: Active
Activity [10]: 0%
UI [11]: 8
Activity [12]: 7
Activity [13]: Active
Activity [14]: Active
Activity [15]: Active
Activity [16]: Active
Activity [17]: Active
Activity [18]: 0%
Activity [19]: Active
Activity [20]: 14%
Activity [21]: Active
Activity [22]: Active
Activity [23]: Active
Activity [24]: Dose-Dependent Effect
